The text below walks through data of US10203334B2, “Methods and compositions related to nucleic acid binding assays” (Nubad, LLC, priority 2012, dated 2019).

Test [1] concerns DNA d(G4C4). Put plainly: Displacement of F-neo (42a) from GC DNA, 96-well. Format: binding. Conditions: one molar equivalent; FIG. 15. The source says: The HTS by the displacement of a fluorescene-neomycin (F-neo (42a)) bound from a synthetic DNA sequence eight bases long designed to conform to A-form DNA by the synthetic molecule neomycin-anthraquinone (67) using a 96 well plate format and a fluorescent plate reader is disclosed.
The high throughput screening (HTS) has been designed to determine the binding of drugs to the target sequence d(G4C4). The target is predicted to exist predominately in the A-form conformation of DNA. This HTS involves the displacement of a fluorescene-neomycin (F-neo (42a)) by DNA binding molecules in a 96 well plate format using a fluorescent plate reader. […] The quality of the assay was determined by the calculation of a Z′-factor using equation 1 for the displacement of F-neo (42a) from the DNA by neomycin-anthraquinone 67. The final assay results were obtained using the average (μn) and standard deviation (σn) from 36 wells of 0.1 μM F-neo (42a)/DNA d(G4C4) as the negative control and from the average (μp) and standard deviation (σp) 36 wells of 0.1 μM F-neo (42a)/DNA d(G4C4) mixed with 0.3 μM neomycin-anthraquinone 67 as the positive control.
Upon binding to the DNA the fluorescence of F-neo (42a) is quenched. […] This increase is not observed with the addition of the minor groove binding compound 59, in which the change in the fluorescence observed is approximately the same as that of the DMSO control.

Test [2] has as its system DNA d(G4C4). Put plainly: Displacement of TO-neo (36a) from GC DNA, 96-well. The test is classed as binding. The note with it: FIG. 14. The source says:
The HTS by the displacement of a thiazole-neomycin (TO-neo (36a)) bound from a synthetic DNA sequence eight bases long designed to conform to A-form DNA by the synthetic molecule neomycin-anthraquinone 67 using a 96 well plate format and a fluorescent plate reader was disclosed herein.
The high throughput screening (HTS) has been designed to determine the binding of drugs to the target sequence d(G4C4). The target is predicted to exist predominately in the A-form conformation of DNA. This HTS involves the displacement of a TO-neo (36a) molecule by DNA binding molecules in a 96 well plate format using a fluorescent plate reader. […] The quality of the assay was determined by the calculation of a Z′-factor using equation 1 for the displacement of TO-neo (36a) from the DNA by a neomycin-anthraquinone 67 conjugate. […]
The fluorescence of the probe decrease approximately 60% with the addition of the neomycin-anthraquinone 67, a synthetic molecule predicted to bind in the major groove. However, with the addition of the minor groove binding compound 59, the change in fluorescence is less than 10%. The change in the fluorescence observed upon the addition of the compound 59 is approximately the same as that observed in the DMSO control.

For another test, the system named is bacterial A-site oligos. The note with it: cited from earlier work.
The test system of the next test is TAR RNA. Conditions: read-out: IC50 for inhibition of Tat peptide binding to the TAR RNA; cited from earlier work.
For test [3], the system named is E. coli ribosomal A-site oligonucleotide (SEQ ID No. 1). Put plainly: 96-well F-neo displacement HTS on ribosomal A-site. The test is classed as binding. Conditions: 0.30 mM F-neo, 0.3 mM A-site oligonucleotide, 1.0 mM neomycin. From the text: [drawing 24] where FHNeo represents the protonated form of F-neo. F(-)Neo, upon binding to nucleic acids such as DNA or RNA, is destabilized by the nucleic acid backbone negative potential, shifting the equilibrium towards FH, making F-neo a weaker acid, raising the pKa, which is what we observe upon binding to the A-site. For the A-site targeted assay, we calculated the Z' factor (Z=1-3(2.7+2.8)/(414-267)=0.89. […] Provided is a detailed example for the development of a HTS by the displacement of a fluorescene-neomycin (F-neo (42a)) from rRNA A-site oligonucleotide (SEQ ID No. 1) using a 96 well plate format and a fluorescent plate reader. […] This HTS involves the displacement of a fluorescene-neomycin (F-neo (42a)) by potential RNA binding molecules in a 96 well plate format using a fluorescent plate reader. […] F-neo based RNA binding assays have been performed using a fluorescence spectrophotometer with a 96-well plate reader and results recorded in FIG. 4. […] Fo is defined as the baseline fluorescence intensity of the RNA/F-neo complex and F is the intensity with added drug. The difference between the fluorescence intensity baseline of F-neo/A-site complex and complex with added drug (F-Fo) indicates the extent of the competition of drug for the binding site, this allows the relative binding affinities of aminoglycosides to be established. […]

In test [4] the test system is dimeric form of a parallel quadruplex formed by the Tetrahymena telomere. Conditions: cited from earlier work.

As for `CN(C)CCCNC(=O)c1cc(NC(=O)c2cc(NC(=O)c3nc(NC(=O)c4nc(NC(=O)CCCNC(=O)c5cc(NC(=O)c6cc(NC(=O)c7nc(NC(=O)c8nccn8C)cn7C)cn6C)cn5C)cn4C)cn3C)cn2C)cn1C` [compound 59, reference compound], the “change in fluorescence of F-neo (42a) bound to d(G4C4)2 on addition of compound” value in the test on DNA d(G4C4) [1] was “not displaced”. For the same molecule, the “decrease in fluorescence of TO-neo (36a) bound to d(G4C4)2 on addition of compound” value in the test on DNA d(G4C4) [2] is recorded as “less than 10%”.
Taken in the same sequence, the figures for `NCC1O[C@H](OC2C(O)C(OC3C(O)[C@H](N)CC(N)[C@H]3O[C@H]3OC(CN)[C@@H](O)C(O)C3N)O[C@@H]2CSCCNC(=S)NCCNC(=O)c2ccc3c(c2)C(=O)c2ccccc2C3=O)C(N)C(O)[C@@H]1O` (stereo partly drawn) [neomycin-anthraquinone 67, Neomycin-Anthraquinone Conjugate] were “significant increase in the fluorescence” and “approximately 60%”.
On to `NC[C@@H]1O[C@H](O[C@H]2[C@@H](O)[C@H](O[C@@H]3[C@@H](O)[C@H](N)C[C@H](N)[C@H]3O[C@H]3O[C@H](CO)[C@@H](O)[C@H](O)[C@H]3N)O[C@@H]2CO)[C@H](N)[C@@H](O)[C@@H]1O` [paromomycin], for which, in the test with bacterial A-site oligos, the “relative binding affinities with bacterial A-site oligos” value (shortened to “relative binding affinities”) is reported as “neomycin>paromomycin>ribostamycin”.
Consider `NC[C@H]1O[C@H](O[C@H]2[C@H](O[C@@H]3O[C@H](CO)[C@@H](O)[C@H]3O)[C@@H](O)[C@H](N)C[C@@H]2N)[C@H](N)[C@@H](O)[C@@H]1O` [ribostamycin], for which, in the test on bacterial A-site oligos, the “relative binding affinities” value was “neomycin>paromomycin>ribostamycin”.
As for `[H]/N=C(/N)N[C@H]1[C@H](O)[C@@H](O)[C@H](O[C@@H]2O[C@@H](C)[C@](O)(C=O)[C@H]2O[C@@H]2O[C@@H](CO)[C@H](O)[C@@H](O)[C@@H]2NC)[C@@H](N/C(N)=N\[H])[C@@H]1O` [streptomycin], in the test on TAR RNA, the IC50 is 9.5 ± 0.8 µM.
On to gentamicin, for which the IC50 with TAR RNA was 45 ± 4 µM.
In the case of neomycin, in test [3], the “effect of added drug on fluorescence of F-neo/A-site oligonucleotide complex” value is “restored the intensity to F-neo only levels”. For the same molecule, the IC50 with TAR RNA is 0.92 ± 0.09 µM. Besides, the “relative binding affinities” value in the test with bacterial A-site oligos is listed as “neomycin>paromomycin>ribostamycin”. The “affinity” value in test [4] is on record as “nanomolar affinity”.
